This is an account of results in patent publication US11684603B2, “Neuraminidase inhibition to improve glycocalyx volume and function to ameliorate cardiovascular diseases in pathologies associated with glycocalyx damage” (priority 2017, dated 2023).

The subject of one experiment is human endothelial cells. As to the kind of experiment: Wheat Germ Agglutinin (WGA) staining of the glycocalyx of cultured human endothelial cells. Format: cell-based. To be noted: neuraminidase plus Zanamivir for 1 hour.
Experiment [1] deals with femoral arteries. As to the kind of experiment: Flow mediated dilation in isolated femoral arteries from treated db/db mice. The experiment is classed as in vivo. Conditions: 5 mg twice a day via inhalation for 5 days, vs placebo control; increasing shear stress. An excerpt: Vessels were pre-constricted with phenylephrine and exposed to increasing shear stress (dynes/cm^2) to assess flow mediated dilation. […] Data represent mean+/−SEM, *P<0.05, determined by two-tailed Student t test.

The test system of experiment [2] is femoral arteries. As to the kind of experiment: Vasodilation of pre-constricted femoral arteries from treated db/db mice to insulin, acetylcholine or sodium nitroprusside. To be noted: 5 mg twice a day via inhalation for 5 days, vs vehicle cohort. Format: in vivo. An excerpt: In a separate set of experiments, vessels were pre-constricted and exposed to increasing concentrations of insulin (FIG. 8C) or endothelium-dependent vasodilator, acetylcholine (FIG. 8D). […] Data represent mean+/−SEM, *P<0.05, determined by two-tailed Student t test.
(§1) Data represent mean+/−SEM, *P<0.05, determined by two-tailed Student t test.

The next experiment has as its system isolated aortas. As to the kind of experiment: Atomic force microscopy of aortic endothelial stiffness in treated db/db mice. The experiment is classed as in vivo. Conditions: 5 mg twice a day via inhalation for 5 days, vs vehicle.
Excerpt: as §1

The subject of another experiment is glycocalyx. To be noted: patients with familial hypercholesterolemia, short term treatment; cited from earlier work.

In the case of `CC(=O)NC1C(NC(=N)N)C=C(C(=O)O)OC1C(O)C(O)CO` (stereo not shown) [Zanamivir, 5-acetamido-4-guanidino-6-(1,2,3-trihydroxypropyl)-5,6-dihydro-4H-pyran-2-carboxylic acid], the “effect on the neuraminidase-induced reduction in WGA staining” value with human endothelial cells is given as “attenuated”. Also, the flow mediated dilation entry with femoral arteries [1] is “significantly improved”. Also, in the experiment on femoral arteries [2] (increasing concentrations of acetylcholine), the “endothelial dependent vasodilatory response to acetylcholine” value is listed as “greater”. Further, in the experiment with femoral arteries [2] (increasing concentrations of insulin), the “endothelial dependent vasodilatory response to insulin” value was “greater”. Besides, the aortic endothelial stiffness entry in the experiment on isolated aortas is “significant reduction”.
On to `CC(C)c1nc(N(C)S(C)(=O)=O)nc(-c2ccc(F)cc2)c1/C=C/[C@@H](O)C[C@@H](O)CC(=O)O` [Rosuvastatin], for which, in the experiment on glycocalyx, the glycocalyx volume result is listed as “partially restored glycocalyx volume” and the plasma hyaluronidase activity result is recorded as “increase in plasma hyaluronidase activity”.
